In series [1] the test system is Balb/C mice. The note with it: Al-Abed et al., 2005; cited from earlier work.
The subject of the next series is LPS-treated macrophages. The note with it: cited from earlier work.
Series [2] addresses T1, MIF (Homo sapiens, UniProt P14174).
T1 sequence (P14174 2-115 limits assumed): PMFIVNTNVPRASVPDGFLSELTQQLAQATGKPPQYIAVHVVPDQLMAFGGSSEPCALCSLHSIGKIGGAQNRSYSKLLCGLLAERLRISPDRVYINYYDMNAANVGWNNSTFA
As to the kind of experiment: Spectrophotometric assay of MIF tautomerase activity on L-dopachrome methyl ester. The series is classed as biochemical.
Procedure: The inhibitors 3-15 were dissolved in DMSO at various concentrations (0.1-100 μM) and 1 μL was added to the cuvette with the MIF prior to the addition of the dopachrome.
The inhibitors were dissolved in DMSO at various concentrations (0.1-100 mM) and added to the cuvette with the MIF prior to the addition of the dopachrome.

The subject of series [3] is Balb/C mice. The series can be described thus: Cecal ligation and puncture (CLP) sepsis model, survival. Format: in vivo. The note with it: 4 mg/kg intraperitoneal, initiated 24 h after CLP, continued for 3 days; control 28%. On the procedure: FIG. 4 is a graph of experimental results showing that the hydrazone compound 7 is protective after 24 h late treatment in a CLP model. Mice were injected intraperitoneally with compound 7 (“hydrazone”) (4 mg/kg) (n=13, p<0.01) or vehicle 24 h after CLP (n=13). A single injection was composed of 100 μg of Compound 7 (equivalent to 4 mg/kg) in 200 μL of 20% DMSO: 80% saline solution. Additional administrations of compound 7 (bi-daily) were given on days 2 and 3.
All animal experiments were approved by the Institutional Animal Care and Use Committee of the North Shore-Long Island Jewish Research Institute. Male Balb/C mice, ˜8 weeks old, were subjected to cecal ligation and puncture. Details of the CLP procedure has been carried out as follows: In anesthetized male Balb/C mice (ketamine 100 mg/kg and xylazine 8 mg/kg administered intramuscularly) the cecum was ligated and given a single puncture. Abdominal access was gained via a midline incision. The cecum was isolated and ligated with a 6-0 silk ligature below the ileocecal valve, and the cecum punctured once with a 22 G needle, stool (approximately 1 mm) extruded from the hole, and the cecum placed back into the abdominal cavity. The abdomen was closed with two layers of 6-0 Ethilon sutures. […] Animal survival was monitored for 14 days. […]

Another series has as its system Swiss Webster male mice. The series can be described thus: Carrageenan air pouch model, leukocyte recruitment. The series is classed as in vivo. The following applies: oral administration; assessed by inhibition of leukocyte infiltration. On the procedure:
Air pouches were made according to standard procedures (Garcia-Ramallo et al., 2002) on Swiss Webster male mice (25-30 g) by injecting sterile air s.c. on day 0 (6 ml) and day 3 (3 ml). On day 6, animals were treated with vehicle (350 μl of 20% DMSO) or compound 7 (7 mg/kg) either intraperitoneal (i.p.) or gavage (oral) as indicated. After 15 min, the animals were challenged by injecting 1 ml 1% carrageenan (in PBS) into the air pouch cavity. Five hrs after carrageenan injection the animals were sacrificed, the pouches washed with PBS, exudate collected, and the total number of infiltrating cells quantitated.
In another experiment, air pouches were made as above. On day 6, animals were treated with vehicle (350 μl of 20% DMSO) or compound 7 (7 mg/kg, gavage) at the indicated times prior to sacrificing and cell harvesting. In all cases, 1% carrageenan was injected into the air pouch cavity 5 hrs before sacrificing.

Series [4] has as its target T1, MIF. The following applies: previously shown (Dios et al., 2002); read-out: IC50, L-amino acid Schiff bases, MIF tautomerase; cited from earlier work.
[5] abbreviates: Table 1, L-dopachrome methyl ester substrate, read-out: IC50 for inhibition of MIF tautomerase activity.
[6] abbreviates: read-out: IC50, MIF tautomerase activity.
Setting [7] is: read-out: IC50, MIF tautomerase.

Data on 16 molecules can be found in patent US8742173B2, “Phenolic hydrazone macrophage migration inhibitory factor inhibitors” (The Feinstein Institute for Medical Research, priority 2006, dated 2014).

Read-outs that look alike come from different tables or passages of the source. Where only a bound is given, the exact number is not on record here.

The term melting point denotes the temperature, or range, at which the solid turns liquid. By IC50 is commonly meant the concentration that inhibits the measured activity by half.

In the case of `COC(=O)CC1CC(c2ccc(O)cc2)=NO1` (stereo not drawn) [Compound 2, ISO-1], the “survival in septic mice” value in the series with Balb/C mice [1] was “significantly improves survival”. The “inhibition of LPS-induced TNF release” value is reported as “not” in the series on LPS-treated macrophages (MIF null macrophages) and “dose-dependently inhibits” in the series on LPS-treated macrophages (wild-type macrophages).
`NN=Cc1ccc(O)cc1` [Compound 3] registered a melting point of 248 to 250 °C. Further, the IC50 at MIF [2] (setting [5]) is above 500000 nM. On MIF [2] (setting [6]), the IC50 was above 500000 nM.
Molecule `CNN=Cc1ccc(O)cc1` [Compound 4] returned a melting point of 58 to 60 °C. The IC50 at MIF [2] (setting [6]) turned out to be 43000 nM.
On the same counts, the results for `Oc1ccc(C=NNc2ccccc2)cc1` [Compound 5] are 154 to 156 °C and 2600 nM.
Turning to `COc1ccc(NN=Cc2ccc(O)cc2)cc1` [Compound 6], on MIF [2] (setting [5]), the 50% inhibitory concentration (IC50) was determined as 480 nM.
Turning to `COc1ccc(NN=Cc2ccc(O)c(F)c2)cc1` [Compound 7], the IC50 at MIF [2] (setting [7]) worked out at 130 nM. In addition, in the series on Balb/C mice [3], the survival rate is 65%. In addition, the apparent biological half-life in the series with Swiss Webster male mice is reported as 7-9 hours.
Molecule `COc1ccc(NN=Cc2ccc(O)c(Cl)c2)cc1` [Compound 8] displayed a melting point of 108 to 110 °C. Also, the half-inhibitory concentration (IC50) on MIF [2] (setting [7]) was 220 nM.
Taken in the same sequence, the figures for `COc1ccc(NN=Cc2ccc(O)c(Br)c2)cc1` [Compound 9] were 135 to 137 °C and 330 nM.
Consider `CN(N=Cc1ccc(O)cc1)c1ccccc1` [Compound 10], for which the melting point is 93 to 95 °C. Also, the half-inhibitory concentration (IC50) at MIF [2] (setting [6]) amounted to 300000 nM.
The molecule `CCOC(=O)NN=Cc1ccc(O)cc1` [Compound 12] showed a melting point of 189 to 190 °C.
On to `CC(C)(C)OC(=O)NN=Cc1ccc(O)cc1` [Compound 13], for which the melting point was 155 to 156 °C.
`O=C(NN=Cc1ccc(O)cc1)OCc1ccccc1` [Compound 14] showed a melting point of 159 to 160 °C.
Still for that read-out and setting: with `COc1ccc(COC(=O)NN=Cc2ccc(O)cc2)cc1` [Compound 15] the figure was 147 to 148 °C.
As to `CC(C)(C)OC(=O)NN=Cc1ccc(O)c(F)c1` [Compound 18], on MIF [2] (Table 2, hydrazone carbamates, L-dopachrome methyl ester substrate, read-out: IC50 for inhibition of MIF tautomerase activity), the IC50 came to 2400 nM.
For `N[C@@H](Cc1ccccc1)C(=O)O` [L-phenylalanine], at MIF [4], the IC50 was 50000 nM.
As for `N[C@@H](Cc1ccc(O)cc1)C(=O)O` [L-tyrosine], at MIF [4], the 50% inhibitory concentration (IC50) was 10000 nM.
